The results in this text go back to patent US4780467A, “Esters of N-alkyl-nortropines and their quaternary derivatives having anti-bronchospastic activity, and pharmaceutical compositions containing them” (Laboratori Guidotti Spa, priority 1986, dated 1988).

For experiment [1], the system named is bronchospasm induced by acetyl choline aerosol in guinea pig. The experiment in a line: inhibition of bronchospasm induced by acetyl choline aerosol in awake guinea pig. The format is in vivo. The following applies: for ED50: Cavia porcellus, iv.
Experiment [2] deals with isolated trachea of guinea pig. The experiment can be described thus: relaxation of isolated trachea of guinea pig precontracted with methacoline. Particulars: Cavia porcellus, read-out: IC50, relaxing the contraction of the isolated trachea of guinea pig precontracted with methacoline. From the text: The compounds of the invention have been pharmacologically studied by means of in vitro and in vivo tests, suitable to evidence the anti-bronchospastic properties of the compounds. […] To this action a remarkable anti-bronchospastic action in the tests in vivo corresponded after administration by i.v. and inhalatory route.

Molecules are shown by their SMILES.

`CC[N+]1(C(C)C)[C@@H]2CC[C@H]1C[C@@H](OC(=O)C1CCCC=C1c1ccccc1)C2` (some centres unmarked) [1st formula, 1st R, 4th R']: the “ED50, inhibition of bronchospasm induced by acetyl choline aerosol” value in experiment [1] (i.v.) is on record as ~ 5900 nmol kg^-1. In general, IC50 refers to the point on the concentration scale where inhibition reaches its midpoint. By ED50 is commonly meant the dose that gives a 50% effect, or the effect in half of the subjects. A lower ED50 goes with an effect at a small dose. With `CC[N+]1(CC(C)C)[C@@H]2CC[C@H]1C[C@@H](OC(=O)C1CCCC=C1c1ccccc1)C2` (some centres unmarked) [1st formula, 1st R, 6th R'], the IC50 in experiment [2] was 54 nM. Further, the ED50 in experiment [1] is greater than 5.7 µmol/kg. As for `CCCC[N+]1(CC)[C@@H]2CC[C@H]1C[C@@H](OC(=O)C1CCCC=C1c1ccccc1)C2` (some centres unmarked) [1st formula, 1st R, 7th R'], the IC50 in experiment [2] turned out to be 69 nM. Consider `CC(C)[N+]1(C(C)C)[C@@H]2CC[C@H]1C[C@@H](OC(=O)C1CCCC=C1c1ccccc1)C2` (some centres unmarked) [1st formula, 2nd R, 4th R'], for which the IC50 in experiment [2] stood at 46 nM. In addition, it took a dose of 2.5 µmol/kg to reach the 50% effect level in experiment [1] (ED50). Consider `CC(C)C[N+]1(C(C)C)[C@@H]2CC[C@H]1C[C@@H](OC(=O)C1CCCC=C1c1ccccc1)C2` (some centres unmarked) [1st formula, 2nd R, 6th R'], for which the IC50 in experiment [2] stood at 80 nM. In experiment [1], this compound returned an ED50 of 1.08 µmol/kg. With `CCCC[N+]1(C(C)C)[C@@H]2CC[C@H]1C[C@@H](OC(=O)C1CCCC=C1c1ccccc1)C2` (some centres unmarked) [1st formula, 2nd R, 7th R'], the IC50 in experiment [2] came to 45 nM. This compound also returned a median effective dose (ED50) in experiment [1] of 0.99 µmol/kg.

The compound `CCC[N+]1(C(C)C)[C@@H]2CC[C@H]1C[C@@H](OC(=O)C1CCCC=C1c1ccccc1)C2` (some centres unmarked) [1st formula, 3rd R, 4th R'] came in with an ED50 in experiment [1] greater than 5.7 µmol/kg. `CCC[N+]1(CCC)[C@@H]2CC[C@H]1C[C@@H](OC(=O)C1CCCC=C1c1ccccc1)C2` (some centres unmarked) [1st formula, 3rd R, 5th R']: the IC50 in experiment [2] came out at 380 nM. Consider `CCC[N+]1(CC(C)C)[C@@H]2CC[C@H]1C[C@@H](OC(=O)C1CCCC=C1c1ccccc1)C2` (some centres unmarked) [1st formula, 3rd R, 6th R'], for which, in experiment [2], the IC50 came to 1200 nM. Further, in experiment [1], the ED50 was greater than 5.6 µmol/kg. As for `CCCC[N+]1(CCC)[C@@H]2CC[C@H]1C[C@@H](OC(=O)C1CCCC=C1c1ccccc1)C2` (some centres unmarked) [1st formula, 3rd R, 7th R'], the IC50 in experiment [2] came to 190 nM. Moreover, the ED50 in experiment [1] is greater than 5.6 µmol/kg.

Consider `CC(C)[N+]1(C)[C@@H]2CC[C@H]1C[C@@H](OC(=O)CC1=C(c3ccccc3)CCCC1)C2` (some centres unmarked) [2nd formula, 1st R, 4th R'], for which the ED50 in experiment [1] is greater than 0.6 µmol/kg. On to `CCC[N+]1(C)[C@@H]2CC[C@H]1C[C@@H](OC(=O)CC1=C(c3ccccc3)CCCC1)C2` (some centres unmarked) [2nd formula, 1st R, 5th R'], for which the IC50 in experiment [2] amounted to 240 nM. Further, the ED50 in experiment [1] is greater than 0.6 µmol/kg.

Take `CC(C)[N+]1(C(C)C)[C@@H]2CC[C@H]1C[C@@H](OC(=O)CC1=C(c3ccccc3)CCCC1)C2` [2nd formula, 2nd R, 4th R']: the IC50 in experiment [2] amounted to 67000 nM. For the same compound, the ED50 in experiment [1] was greater than 5.6 µmol/kg. The matching figures for `CCC[N+]1(C(C)C)[C@@H]2CC[C@H]1C[C@@H](OC(=O)CC1=C(c3ccccc3)CCCC1)C2` (some centres unmarked) [2nd formula, 2nd R, 5th R']: 8500 nM and greater than 5.6 µmol/kg. The matching figures for `CC(C)N1[C@@H]2CC[C@H]1C[C@@H](OC(=O)C1CCCC=C1c1ccccc1)C2` (stereo partly drawn) [Example 1, Endo-3-(2-phenyl-2-cyclohexen-1-carbonyloxy)-8-sin-isopropyl-8-azabicyclo-[3.2.1]-octane]: 350 nM and roughly 1.5 µmol/kg. On the same counts, the results for `CCN1[C@@H]2CC[C@H]1C[C@@H](OC(=O)C1CCCC=C1c1ccccc1)C2` (stereo partly drawn) [Example 4, Endo-3-(2-phenyl-2-cyclohexen-1-carbonyloxy)-8-sin-ethyl-8-azabicyclo-[3.2.1.]-octane] are 280 nM and 6.12 µmol/kg. As to `CCC[N+]1(CC)[C@@H]2CC[C@H]1C[C@@H](OC(=O)C1CCCC=C1c1ccccc1)C2` (stereo partly drawn) [Example 26, Endo-3-(2-phenyl-2-cyclohexen-1-carbonyloxy)-8-sin-propyl-8-ethyl-8-azoniabicyclo-[3.2.1.]-octane iodide], the ED50 in experiment [1] came to 0.228 µmol/kg.

For `CC(C)[N+]1(C)[C@@H]2CC[C@H]1C[C@@H](OC(=O)CC1=C(c3ccccc3)CCCC1)C2` (stereo partly drawn) [Example 31, Endo-3-(2-phenyl-1-cyclohexen-1-acetoxy)-8-sin-isopropyl-8-methyl-8-azoniabicyclo-[3.2.1.]-octane iodide], the IC50 in experiment [2] worked out at 27 nM.
